The results in this text go back to patent US6358947B1 (American Home Products Corporation, priority 1999, dated 2002).

pEC50, pIC50: −log10 of the molar value.

What all share (type): cell-based
The target in assay [1] is T1, hER (Homo sapiens, UniProt P03372).
T1 sequence (P03372 1-595): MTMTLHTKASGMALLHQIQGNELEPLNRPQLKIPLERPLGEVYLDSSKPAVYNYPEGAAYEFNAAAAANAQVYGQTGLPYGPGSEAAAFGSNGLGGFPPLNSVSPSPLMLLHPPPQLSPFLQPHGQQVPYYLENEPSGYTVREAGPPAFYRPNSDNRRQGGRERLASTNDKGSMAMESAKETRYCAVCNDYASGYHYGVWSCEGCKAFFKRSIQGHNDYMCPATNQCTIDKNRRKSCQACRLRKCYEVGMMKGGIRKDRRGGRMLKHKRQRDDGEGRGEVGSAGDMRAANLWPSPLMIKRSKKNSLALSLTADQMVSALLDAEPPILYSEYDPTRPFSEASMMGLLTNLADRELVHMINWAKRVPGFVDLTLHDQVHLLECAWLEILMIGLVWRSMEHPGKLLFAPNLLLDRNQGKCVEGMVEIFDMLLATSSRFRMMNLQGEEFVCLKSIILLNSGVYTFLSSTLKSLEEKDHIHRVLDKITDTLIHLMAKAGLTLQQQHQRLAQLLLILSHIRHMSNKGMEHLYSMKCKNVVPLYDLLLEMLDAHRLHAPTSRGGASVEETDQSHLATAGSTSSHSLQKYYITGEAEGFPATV
Put plainly: Cotransfection assay, ER agonist. Particulars: read-out: ER Potency Agon.
From the text: (§1) The cotransfection assay provides a method for identifying functional agonists and partial agonists that mimic, or antagonists that inhibit, the effect of native hormones, and for quantifying their activity for responsive intracellular receptor (IR) proteins. In this regard, the cotransfection assay mimics an in vivo system in the laboratory. Importantly, activity in the cotransfection assay correlates very well with known in vivo activity, such that the cotransfection assay functions as a qualitative and quantitative predictor of a tested compound's in vivo pharmacology.
(§2) In the cotransfection assay, a cloned cDNA for an IR (e.g., human PR, AR or GR) under the control of a constitutive promoter (e.g., the SV 40 promoter) is introduced by transfection (a procedure to induce cells to take up foreign genes) into a background cell substantially devoid of endogenous IRs. This introduced gene directs the recipient cells to make the IR protein of interest. A second gene is also introduced (cotransfected) into the same cells in conjunction with the IR gene. This second gene, comprising the cDNA for a reporter protein, such as firefly luciferase (LUC), is controlled by an appropriate hormone responsive promoter containing a hormone response element (HRE). This reporter plasmid functions as a reporter for the transcription-modulating activity of the target IR. Thus, the reporter acts as a surrogate for the products (mRNA, then protein) normally expressed by a gene under control of the target receptor and its native hormone.
(§3) The cotransfection assay can detect small molecule agonists or antagonists of target IRs. Exposing the transfected cells to an agonist ligand compound increases reporter activity in the transfected cells. This activity can be conveniently measured, e.g., by increasing luciferase production, which reflects compound-dependent, IR-mediated increases in reporter transcription. […] Increasing concentrations of a suspected antagonist will decrease the reporter signal (e.g., luciferase production). The cotransfection assay is therefore useful to detect both agonists and antagonists of specific IRs. Furthermore, it determines not only whether a compound interacts with a particular IR, but whether this interaction mimics (agonizes) or blocks (antagonizes) the effects of the native regulatory molecules on target gene expression, as well as the specificity and strength of this interaction.

The target of assay [2] is T1, hER. Put plainly: Cotransfection assay, ER antagonist. The conditions noted are these: read-out: ER Potency Antag.
From the text: as §1, §2, §3
For assay [3], the target named is T2, hGR (Homo sapiens, UniProt P04150).
T2 sequence (P04150 1-777): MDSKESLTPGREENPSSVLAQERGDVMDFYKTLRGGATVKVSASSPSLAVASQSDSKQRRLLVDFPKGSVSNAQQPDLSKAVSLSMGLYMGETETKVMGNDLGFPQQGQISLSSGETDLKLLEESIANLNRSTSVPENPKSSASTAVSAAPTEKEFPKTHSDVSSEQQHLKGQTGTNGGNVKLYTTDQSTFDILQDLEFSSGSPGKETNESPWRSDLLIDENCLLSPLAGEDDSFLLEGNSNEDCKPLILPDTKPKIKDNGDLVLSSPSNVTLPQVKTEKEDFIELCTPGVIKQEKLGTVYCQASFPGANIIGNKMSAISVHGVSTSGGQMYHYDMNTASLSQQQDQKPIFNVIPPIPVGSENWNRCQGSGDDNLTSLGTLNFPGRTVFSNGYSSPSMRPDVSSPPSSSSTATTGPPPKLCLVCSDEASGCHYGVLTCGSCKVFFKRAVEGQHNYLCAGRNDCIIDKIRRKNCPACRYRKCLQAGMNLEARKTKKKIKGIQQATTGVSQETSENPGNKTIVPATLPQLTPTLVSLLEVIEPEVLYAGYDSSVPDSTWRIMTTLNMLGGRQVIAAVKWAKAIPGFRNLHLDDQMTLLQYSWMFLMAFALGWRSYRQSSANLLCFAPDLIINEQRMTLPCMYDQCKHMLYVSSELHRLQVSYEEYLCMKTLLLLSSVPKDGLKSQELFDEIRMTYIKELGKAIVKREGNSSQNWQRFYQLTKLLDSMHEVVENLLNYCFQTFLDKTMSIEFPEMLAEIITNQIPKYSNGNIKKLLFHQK
Briefly: Cotransfection assay, GR antagonist. Particulars: read-out: GR Potency Antag.
From the text: as §1, §2, §3

For assay [4], the target named is T3, human PR (Homo sapiens, UniProt P06401).
T3 sequence (P06401 1-933): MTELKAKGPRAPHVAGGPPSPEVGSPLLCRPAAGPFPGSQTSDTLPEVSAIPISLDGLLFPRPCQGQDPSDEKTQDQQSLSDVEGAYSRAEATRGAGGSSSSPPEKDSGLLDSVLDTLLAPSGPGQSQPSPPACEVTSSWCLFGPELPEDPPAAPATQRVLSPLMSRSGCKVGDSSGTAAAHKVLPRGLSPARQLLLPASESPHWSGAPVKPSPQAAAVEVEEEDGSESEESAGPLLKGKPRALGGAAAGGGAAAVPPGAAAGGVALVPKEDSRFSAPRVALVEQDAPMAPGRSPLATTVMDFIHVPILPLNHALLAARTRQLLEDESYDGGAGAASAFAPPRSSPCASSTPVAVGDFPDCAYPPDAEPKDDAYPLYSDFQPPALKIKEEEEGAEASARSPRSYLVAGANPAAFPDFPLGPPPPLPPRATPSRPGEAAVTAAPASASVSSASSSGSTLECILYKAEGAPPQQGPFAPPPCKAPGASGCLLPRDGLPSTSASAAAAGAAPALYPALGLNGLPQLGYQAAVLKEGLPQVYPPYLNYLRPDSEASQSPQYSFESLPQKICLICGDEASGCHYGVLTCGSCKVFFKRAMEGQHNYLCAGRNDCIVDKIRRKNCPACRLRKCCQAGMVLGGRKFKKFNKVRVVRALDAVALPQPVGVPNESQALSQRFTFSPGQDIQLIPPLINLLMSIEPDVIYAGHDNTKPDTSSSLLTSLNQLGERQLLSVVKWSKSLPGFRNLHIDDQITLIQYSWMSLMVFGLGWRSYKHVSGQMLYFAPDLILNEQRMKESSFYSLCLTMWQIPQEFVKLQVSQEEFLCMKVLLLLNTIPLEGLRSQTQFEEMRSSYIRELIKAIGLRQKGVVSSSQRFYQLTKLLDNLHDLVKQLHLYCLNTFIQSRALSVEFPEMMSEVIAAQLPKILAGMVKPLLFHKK
Briefly: Cotransfection assay, PR agonist, CV-1 cells.
From the text: as §1, §2, §3

The target in assay [5] is T3, human PR. Put plainly: Cotransfection assay, PR antagonist, CV-1 cells. The conditions noted are these: percent maximal response relative to reference antagonist.
From the text: as §1, §2, §3
Assay [6] has as its target T4, hMR (Homo sapiens, UniProt P08235).
T4 sequence (P08235 1-984): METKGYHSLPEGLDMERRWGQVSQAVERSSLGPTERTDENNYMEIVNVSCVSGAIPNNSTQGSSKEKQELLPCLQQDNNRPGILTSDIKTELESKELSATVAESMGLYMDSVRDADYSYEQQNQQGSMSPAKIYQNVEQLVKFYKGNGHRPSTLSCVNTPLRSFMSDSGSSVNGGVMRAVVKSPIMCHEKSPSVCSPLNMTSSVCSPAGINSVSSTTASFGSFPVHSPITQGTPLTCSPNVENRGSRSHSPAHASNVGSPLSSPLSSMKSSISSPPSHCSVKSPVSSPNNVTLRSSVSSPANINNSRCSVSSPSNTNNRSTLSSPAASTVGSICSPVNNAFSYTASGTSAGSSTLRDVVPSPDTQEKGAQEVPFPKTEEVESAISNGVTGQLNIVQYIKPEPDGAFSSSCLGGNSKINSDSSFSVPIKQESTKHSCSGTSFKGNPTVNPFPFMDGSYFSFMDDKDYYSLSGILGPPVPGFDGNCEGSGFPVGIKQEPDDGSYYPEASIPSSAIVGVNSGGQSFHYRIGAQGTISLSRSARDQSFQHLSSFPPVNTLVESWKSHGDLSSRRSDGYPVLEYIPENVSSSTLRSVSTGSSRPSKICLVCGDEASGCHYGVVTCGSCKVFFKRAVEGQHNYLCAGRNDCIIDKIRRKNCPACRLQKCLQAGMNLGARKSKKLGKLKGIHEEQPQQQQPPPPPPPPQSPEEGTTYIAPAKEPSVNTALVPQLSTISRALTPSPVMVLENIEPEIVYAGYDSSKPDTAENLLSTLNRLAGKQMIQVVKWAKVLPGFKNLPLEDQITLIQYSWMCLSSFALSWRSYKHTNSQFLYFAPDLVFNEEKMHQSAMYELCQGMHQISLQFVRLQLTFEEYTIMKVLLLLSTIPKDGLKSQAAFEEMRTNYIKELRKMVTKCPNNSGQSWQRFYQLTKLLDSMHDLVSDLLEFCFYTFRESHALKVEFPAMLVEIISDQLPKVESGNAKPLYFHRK
Briefly: Cotransfection assay, MR antagonist. The conditions noted are these: read-out: MR Potency Antag.
From the text: as §1, §2, §3

Take `CC(=O)S[C@@H]1CC2=CC(=O)CC[C@]2(C)[C@H]2CC[C@@]3(C)[C@@H](CC[C@@]34CCC(=O)O4)[C@H]12` [Spir, reference compound]: in assay [1], the pEC50 is less than 5.00. The figures for the pIC50 in assay [2] and in assay [3] were less than 5.00 and 5.70, respectively.
As to `CN(C)c1ccc([C@H]2C[C@]3(C)[C@@H](CC[C@]3(O)CCCO)[C@@H]3CCC4=CC(=O)CCC4=C32)cc1` [ZK299, reference compound], in assay [4], the “PR Agonist CV-1 Cells Efficacy” value was “na (key: na = not active (i.e. efficacy of <20 and potency of >10,000))”. Also, the “PR Antagonist CV-1 Cells Efficacy” value in assay [5] amounted to 99%.
On to `CC(C)C(=O)Nc1ccc([N+](=O)[O-])c(C(F)(F)F)c1` [Flut, reference compound], for which the pEC50 in assay [4] (Table 2, read-out: PR Potency Agon) was less than 5.00; in assay [1], less than 5.00. Moreover, the pIC50 in assay [2] and in assay [6] was less than 5.00 in each case.
